Values joined by “and” are separate entries in the source; they are usually repeats but may differ in a detail not shown here. Identical values can stand only once. “Also recorded” adds a separate entry of the source.
What was measured:
[1] = system: Male Wistar rats; test: PAG measurement by 1H NMR in urine after single oral dose, ratio versus time-matched controls; format: in vivo, rat; details: for PAG: urine, individual animals
Procedure: (§1) All animals received (human) care as specified by Swiss law and in accordance with the “Guide for the care and use of laboratory animals” published by the NIH. Male Wistar rats (5 animals/dose-group) were purchased from RCC (Füllingsdorf, Switzerland) and housed individually. Treated animals were dosed orally by gavage with several doses of test compounds (Table 1). Control animals received the same volume of vehicle as placebo. Necropsy was performed 48 (subgroup A) or 168 hours (subgroup B) after a single administration (=Day 1) and urine samples were collected in metabolism cages at 0 to 4° C. (automatically refrigerated by a Tecniplast sampling/cooling unit (RACK B940, Tecniplast, USA)) at the intervals given in the sampling schedule in Table 2 into labelled sample tubes containing 1 ml of an aqueous Na-azide (1%) solution. Before aliquoting, urine volumes were determined.
Urine samples were taken on day -7,-2,-1, 1, 2, 3, 4, 5, 6 and 7, whereby Day 1 was the Day of dosing.
Immediately after reaching the end of the sampling period, the volume was determined and the samples were centrifuged at 3000 u/min (500 g) for 10 minutes.
Aliquot: Approximately 2 ml was transferred in 1.8 ml cryvials, round bottom, freestanding, with screw caps and septum for NMR-spectroscopic examinations (Bruker Analytik GmbH, Rheinstetten, Germany, Bruker part No. 85372). The vials were stored at −80° C.
Urine samples were prepared and measured on a Bruker 500 MHz NMR instrument according to the COMET 1H-NMR protocol (Keun, H. C et al., (2002) Physiological variation and analytical reproducibility in metabonomic urinalysis. Chem. Res. Tox. 15, 1380-1386) and as described above. In total 467 urine samples were analyzed. After measurement, all data were processed by XWINMR 3.5.6 (Bruker Biospin AG, Fällanden). Representative spectra are depicted in FIG. 2. Phase correction and baseline correction were performed with NMRPROC 0.3 (T. Ebbels, H. Keun; Imperial College). Spectral data were binned using AMIX 2.6 (Bruker Biospin AG, Fällanden) following the COMET Data Processing & Pattern Recognition protocol (Keun, H. C., et al., (2002) Physiological variation and analytical reproducibility in metabonomic urinalysis. Chem. Res. Tox. 15, 1380-1386). QC check procedures (Dieterle F., Ross A., Schlotterbeck G., Senn H. (2006) Probabilistic Quotient Normalization as Robust Method to Account for Dilution of Complex Biological Mixtures. Application in 1H NMR Metabonomics. Anal. Chem. 78, 4281-4290) were applied on binned data to detect outliers. In total 7 outliers were detected and removed from further analysis. All data were mean-centered and normalized using the probabilistic quotient normalization (Dieterle F., Ross A., Schlotterbeck G., Senn H. (2006) Probabilistic Quotient Normalization as Robust Method to Account for Dilution of Complex Biological Mixtures. Application in 1H NMR Metabonomics. Anal. Chem. 78, 4281-4290.). All binned data were annotated and transferred to the ANT (ANT: Affymetrix NMR Toxicology Data System) database.
The exact PAG quantification was performed according to following procedure: • Baseline subtraction of spectra • Integration of PAG peaks ((=7.47 ppm, (=7.39 ppm, (=3.79 ppm, and (=3.7 ppm respectively) and Citrate region ((=2.66-2.74 ppm and 2.50-2.58 ppm). • Quotient normalization (Dieterle F., Ross A., Schlotterbeck G., Senn H. (2006) Probabilistic Quotient Normalization as Robust Method to Account for Dilution of Complex Biological Mixtures. Application in 1H NMR Metabonomics. Anal. Chem. 78, 4281-4290.) • Divide each of the PAG bins by its average (all spectra) to correct for different relaxation times and number of protons • Calculate median out of the PAG bins • Calculate ratio versus time-matched controls

[2] = system: lymphocytes; test: Electron microscopic examination of buffy coat lymphocytes for lamellar bodies (determination of phospholipidosis); format: in vivo, rat; details: for lymphocytes %, pos. / lymphocytes positive (with lamellar bodies): individual rats, 1000 mg/kg/day
Procedure: as §1
Blood samples (as much as possible) were withdrawn from all animals at necropsy at about 48 hours after dosing (subgroup A) and about 168 hours after dosing (subgroup B)
The samples were collected from the abdominal aorta or by cardiac puncture under terminal anaesthesia (CO2). A total of at least 2 ml blood was required to gain buffy coat (buffy coat=leukocyte band) samples.
After fixation in 2.5% glutaraldehyde, the buffy coat samples from all animals were embedded in Epon. […] All thin sections were examined ultrastructurally. If possible, 200 lymphocytes per sample were examined for lamellar bodies. The results per sample include the total number of lymphocytes examined, the total number of positive lymphocytes (i.e. with lamellar bodies), the percentage of positive lymphocytes and a grading of severity of phospholipidosis (criteria see table 4)

[3] = basic pKa value; format: physicochemical
[4] = potential to induce phospholipidosis judged from amphiphilicity and basic pKa; details: from reduced amphiphilicity and basic pKa
Text: The structural difference between both molecules can be mainly characterized by the exchange of the piperazine against a morpholine moiety in compound 2.

[5] = necropsy 48 hours after application
[6] = necropsy 168 hours after application

Q: With `CN(C(=O)C(C)(C)c1cc(C(F)(F)F)cc(C(F)(F)F)c1)c1cnc(N2CCOCC2)cc1-c1ccccc1Cl` [Compound 2, 2-(3,5-Bis-trifluoromethyl-phenyl)-N-[4-(2-chloro-phenyl)-6-morpholin-4-yl-pyridin-3-yl]-N-methyl-isobutyramide] as the compound, how does the PAG ([1]; High_Dose group, Time 0 (within 8 hours before treatment)) read?
A: Its PAG is 0.3191 and 0.4082 and 0.1757 and 0.4688 and 0.3904 and 0.3807 and 0.4568 and 0.5015 and 0.3805 and 0.4405.

Q: What about the PAG ([1]; High_Dose group, Time 8 (within 8 hours after treatment)) of the same compound?
A: Its PAG is 0.6552 and 0.2654 and 0.3244 and 0.3661 and 0.5090 and 0.8253 and 0.6223 and 0.6794 and 0.5865 and 0.5553.

Q: What about the PAG ([1]; High_Dose group, Time 24 (within 8 to 24 hours after treatment)) of the same compound?
A: Its PAG is 0.4048 and 0.3363 and 0.1408 and 0.3750 and 0.4284 and 0.6538 and 0.4408 and 0.2588 and 0.4111 and 0.3592.

Q: What about the PAG ([1]; High_Dose group, Time −16 (1 day before treatment)) of the same compound?
A: The PAG was 0.6280 and 0.3499 and 0.4531 and 0.5078 and 0.6008 and 0.3961 and 0.6035 and 0.5396 and 0.6968.

Q: And the PAG ([1]; High_Dose group, Time −40 (2 days before treatment))?
A: The PAG was 0.5320 and 0.2568 and 0.4805 and 0.4717 and 0.4514 and 0.4760 and 0.6419 and 0.7515 and 0.6794 and 0.7696.

Q: And the PAG ([1]; Low_Dose group, Time 0 (within 8 hours before treatment))?
A: The PAG was 0.6632 and 0.5179 and 0.2795 and 0.6376 and 0.3104 and 0.3524 and 0.4991 and 0.5273 and 0.2959 and 0.3191.

Q: And the PAG ([1]; Low_Dose group, Time 8 (within 8 hours after treatment))?
A: The PAG was 0.8897 and 0.6310 and 0.3915 and 1.2919 and 0.3580 and 0.9744 and 0.3039 and 0.7208 and 0.6353 and 0.4304.

Q: What about the PAG ([1]; Low_Dose group, Time 24 (within 8 to 24 hours after treatment)) of the same compound?
A: The PAG was 0.6934 and 0.3762 and 0.4835 and 0.8446 and 0.3743 and 0.5615 and 0.3777 and 0.4892 and 0.3393 and 0.4166.

Q: And the PAG ([1]; Low_Dose group, Time 48 (2 days after treatment))?
A: Its PAG is 0.6453 and 0.3298 and 0.3762 and 0.7958 and 0.1879.

Q: What about the PAG ([1]; Low_Dose group, Time −16 (1 day before treatment)) of the same compound?
A: Its PAG is 1.0275 and 1.1002 and 0.4610 and 1.3440 and 0.2541 and 0.7357 and 0.5260 and 0.6162 and 0.5218 and 0.4132.

Q: What about the PAG ([1]; Low_Dose group, Time −40 (2 days before treatment)) of the same compound?
A: The PAG was 0.3418 and 0.5238 and 0.5336 and 0.7115 and 0.6105 and 0.5232.

Q: And the “PAG levels of both dose groups versus time matched controls” value ([1]; rat, single oral dose 300 and 1000 mg/kg)?
A: The value was “comparable to their time matched controls”.

Q: And the “dose dependant change of PAG levels in urine” value ([1]; rat, single oral dose, both dose groups, normalized to time matched controls)?
A: The value was “No significant dose dependant change”.

Q: And the “lymphocytes %, pos.” value [2, 5]?
A: Its value is 0%.

Q: And the “lymphocytes positive (with lamellar bodies)” value [2, 5]?
A: Its value is 0.

Q: What about the “lymphocytes %, pos.” value [2, 6] of the same compound?
A: Its value is 0%.

Q: What about the “lymphocytes positive (with lamellar bodies)” value [2, 6] of the same compound?
A: The value was 0.

Q: And the “lymphocytes containing cytoplasmic lamellar bodies (finding in words)” value ([2]; rats, single oral dose, necropsy 48 or 168 hours after application)?
A: The value was “did not show any lymphocytes with lamellar bodies; also recorded: not affected; also recorded: did not show any lymphocytes containing cytoplasmic lamellar bodies”.

Q: What about the pKa [3] of the same compound?
A: Its pKa is 4.07.

Q: And the “potential to induce phospholipidosis” value [4]?
A: Its value is “low potential”.
